Reference: PubChem BioAssay (NCI)
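Method: 48-hour compound exposure of cells in 96-well plates, five concentrations, linear interpolation of endpoints. Abbreviation: GI50, concentration required for 50% inhibition of growth. TGI: concentration producing complete growth inhibition.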

Assays:
Experiment in all cases: growth of human tumour cells (NCI), 48 h
K-562 leukemia = tested on: K-562 leukemia
HS 578T breast = tested on: HS 578T breast
UACC-257 melanoma = tested on: UACC-257 melanoma
CCRF-CEM leukemia = tested on: CCRF-CEM leukemia
MCF7 breast = tested on: MCF7 breast
SR leukemia = tested on: SR leukemia
HCT-116 colon = tested on: HCT-116 colon
NCI-H460 lung = tested on: NCI-H460 lung
SW-620 colon = tested on: SW-620 colon
SK-MEL-28 melanoma = tested on: SK-MEL-28 melanoma
NCI-H23 lung = tested on: NCI-H23 lung
HL-60(TB) leukemia = tested on: HL-60(TB) leukemia
SF-295 CNS = tested on: SF-295 CNS
HOP-92 NSCLC = tested on: HOP-92 NSCLC
U251 CNS = tested on: U251 CNS
HT29 colon = tested on: HT29 colon
OVCAR-8 ovarian = tested on: OVCAR-8 ovarian
SK-MEL-5 melanoma = tested on: SK-MEL-5 melanoma
RPMI-8226 leukemia = tested on: RPMI-8226 leukemia
MDA-MB-231 breast = tested on: MDA-MB-231 breast
HCT-15 colon = tested on: HCT-15 colon
MOLT-4 leukemia = tested on: MOLT-4 leukemia
KM12 colon = tested on: KM12 colon
UACC-62 melanoma = tested on: UACC-62 melanoma
T-47D breast = tested on: T-47D breast
M14 melanoma = tested on: M14 melanoma
SNB-75 CNS = tested on: SNB-75 CNS
NCI-H226 lung = tested on: NCI-H226 lung
OVCAR-5 ovarian = tested on: OVCAR-5 ovarian
SK-MEL-2 melanoma = tested on: SK-MEL-2 melanoma

CCC(C)S(=O)(=O)c1oc(-c2ccc(C)cc2)nc1S(=O)(=O)c1ccccc1 (centres undefined)
GI50 (K-562 leukemia): 1.38 µM | TGI (K-562 leukemia): > 100 µM | GI50 (HS 578T breast): 2.18 µM | TGI (HS 578T breast): 7.36 µM | GI50 (UACC-257 melanoma): 1.89 µM | TGI (UACC-257 melanoma): 4.24 µM | GI50 (CCRF-CEM leukemia): 0.287 µM | TGI (CCRF-CEM leukemia): 1.33 µM | GI50 (MCF7 breast): 1.2 µM | TGI (MCF7 breast): 2.86 µM | GI50 (SR leukemia): 2.73 µM | TGI (SR leukemia): > 100 µM | GI50 (HCT-116 colon): 1.52 µM | TGI (HCT-116 colon): 3.62 µM | GI50 (NCI-H460 lung): 3.13 µM | TGI (NCI-H460 lung): 12.1 µM | GI50 (SW-620 colon): 1.13 µM | TGI (SW-620 colon): 2.47 µM | GI50 (SK-MEL-28 melanoma): 1.71 µM | TGI (SK-MEL-28 melanoma): 3.14 µM | GI50 (NCI-H23 lung): 1.76 µM | TGI (NCI-H23 lung): 3.55 µM | GI50 (HL-60(TB) leukemia): 1.6 µM | TGI (HL-60(TB) leukemia): 4.91 µM | GI50 (SF-295 CNS): 11.3 µM | TGI (SF-295 CNS): 23.4 µM | GI50 (HOP-92 NSCLC): 2.27 µM | TGI (HOP-92 NSCLC): 6.37 µM | GI50 (U251 CNS): 15.5 µM | TGI (U251 CNS): 31.2 µM | GI50 (HT29 colon): 2.04 µM | TGI (HT29 colon): 4.86 µM | GI50 (OVCAR-8 ovarian): 3.09 µM | TGI (OVCAR-8 ovarian): 10.7 µM | GI50 (SK-MEL-5 melanoma): 2.99 µM | TGI (SK-MEL-5 melanoma): 11.6 µM | GI50 (RPMI-8226 leukemia): 2.16 µM | TGI (RPMI-8226 leukemia): 8.17 µM | GI50 (MDA-MB-231 breast): 1.66 µM | TGI (MDA-MB-231 breast): 3.15 µM | GI50 (HCT-15 colon): 1.45 µM | TGI (HCT-15 colon): 3.18 µM | GI50 (MOLT-4 leukemia): 1.45 µM | TGI (MOLT-4 leukemia): > 100 µM | GI50 (KM12 colon): 8.37 µM | TGI (KM12 colon): 23.4 µM | GI50 (UACC-62 melanoma): 1.76 µM | TGI (UACC-62 melanoma): 3.75 µM | GI50 (T-47D breast): 1.87 µM | TGI (T-47D breast): 4.41 µM | GI50 (M14 melanoma): 1.73 µM | TGI (M14 melanoma): 3.83 µM | GI50 (SNB-75 CNS): 3.86 µM | TGI (SNB-75 CNS): 17 µM | GI50 (NCI-H226 lung): 12.5 µM | TGI (NCI-H226 lung): 30.5 µM | GI50 (OVCAR-5 ovarian): 2.83 µM | TGI (OVCAR-5 ovarian): 9.59 µM | GI50 (SK-MEL-2 melanoma): 4.1 µM
